This is an account of results in patent US20070248727A1, “Method for Removing Hydrohydroquinone” (KAO CORPORATION, priority 2004, published 2007).

The data set concerns rats. Briefly: Urinary hydrogen peroxide level after giving coffee to rats. Type of data set: in vivo. Particulars: rats given coffee. The source says: It is therefore desired to remove hydroxyhydroquinone from coffee.

`Oc1ccc(O)c(O)c1` [hydroxyhydroquinone]: the “generation of hydrogen peroxide in the bodies” value is reported as “caused by hydroxyhydroquinone”.
